Results from US6369088B2, “Substituted 3-phenyl-5-alkoxy-1,3,4-oxadiazol-2-ones, their preparation and their use as pharmaceuticals” (Aventis Pharma Deutschland GmbH, priority 2000, dated 2002).
Structures can show the parent of a compound that is named as a salt.

Experiments:
[1] = molecular target: T1, hormone-sensitive lipase (HSL) (Rattus norvegicus, UniProt P15304); test: HSL enzyme assay: [3H]trioleoylglycerol hydrolysis by partially purified HSL; type: biochemical; settings: partially purified HSL from rat fat cells; [3H]trioleoylglycerol substrate; 37° C., 30 min; read-out: IC50
T1 construct: Isolated rat fat cells were obtained from epididymal adipose tissue; from tissue; host or cells: rat epididymal adipose tissue (isolated fat cells, Wistar rats)
T1 sequence (P15304 1-768 isoform P15304-2): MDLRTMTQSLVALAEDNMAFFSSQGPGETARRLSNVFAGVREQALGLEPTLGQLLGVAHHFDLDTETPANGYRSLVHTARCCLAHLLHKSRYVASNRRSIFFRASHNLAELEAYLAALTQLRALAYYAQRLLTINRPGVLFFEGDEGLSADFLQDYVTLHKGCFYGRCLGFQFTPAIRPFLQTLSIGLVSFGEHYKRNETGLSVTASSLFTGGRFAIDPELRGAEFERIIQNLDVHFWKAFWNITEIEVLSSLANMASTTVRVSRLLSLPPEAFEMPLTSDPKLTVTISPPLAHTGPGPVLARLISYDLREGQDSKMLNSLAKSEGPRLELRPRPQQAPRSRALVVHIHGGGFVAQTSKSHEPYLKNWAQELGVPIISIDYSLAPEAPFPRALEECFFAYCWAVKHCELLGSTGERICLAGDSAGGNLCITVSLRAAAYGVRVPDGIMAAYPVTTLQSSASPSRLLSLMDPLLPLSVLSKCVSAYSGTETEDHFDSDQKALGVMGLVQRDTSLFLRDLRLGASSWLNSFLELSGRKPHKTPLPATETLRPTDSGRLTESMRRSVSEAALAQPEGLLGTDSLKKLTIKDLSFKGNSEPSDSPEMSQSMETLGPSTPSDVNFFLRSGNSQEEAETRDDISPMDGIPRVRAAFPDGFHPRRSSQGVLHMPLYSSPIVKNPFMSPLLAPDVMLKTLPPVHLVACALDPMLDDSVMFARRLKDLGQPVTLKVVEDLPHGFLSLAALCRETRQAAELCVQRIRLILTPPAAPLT
Procedure: The effect of the compounds of the invention on HSL was tested using the following enzyme assay system:
Preparation of Partially Purified HSL:
The fat cells from 10 rats were washed three times by flotation with 50 ml each time of homogenization buffer ([…] tris/HCl, pH 7.4, 0.25 M sucrose, 1 mM EDTA, 1 mM DTT, 10 μg/ml leupeptin, 10 μg/ml antipain, 20 μg/ml pepstatin) and finally taken up in 10 ml of homogenization buffer. The fat cells were homogenized in a Teflon-in-glass homogenizer (Braun-Melsungen) by 10 strokes at 1500 rpm and 15° C. The homogenate was centrifuged (Sorvall SM24 tubes, 5000 rpm, 10 min, 4° C.). The subnatant between the fatty layer at the top and the pellet was removed and the centrifugation was repeated. The subnatant resulting therefrom was recentrifuged (Sorvall SM24 tubes, 20000 rpm, 45 min, 4° C.). […] After the mixture had been incubated at 4° C. for 60 min (shaking at 15-min intervals), it was centrifuged (Sorvall SM24 tubes, 3000 rpm, 10 min, 4° C.). The supernatant was adjusted to pH 5.2 by adding glacial acetic acid and incubated at 4° C. for 30 min. The precipitates were collected by centrifugation (Sorvall SS34, 12000 rpm, 10 min, 4° C.) and suspended in 2.5 ml of 20 mM tris/HCl, pH 7.0,1 mM EDTA, 65 mM NaCl, 13% sucrose, 1 mM DTT, 10 μg/ml leupeptin/pepstatin/antipain. The suspension was dialyzed against 25 mM tris/HCl, pH 7.4, 50% glycerol, 1 mM DTT, 10 μg/ml leupeptin, pepstatin, antipain at 4° C. overnight and then loaded onto a hydroxy apatite column (0.1 g per 1 ml of suspension, equilibrated with 10 mM potassium phosphate, pH 7.0, 30% glycerol, 1 mM DTT). The column was washed with four volumes of equilibration buffer at a flow rate of 20 to 30 ml/h. The HSL was eluted with one volume of equilibration buffer containing 0.5 M potassium phosphate, and then dialyzed (see above) and concentrated 5- to 10-fold by ultrafiltration (Amicon Diaflo PM 10 filter) at 4° C. The partially purified HSL can be stored at −70° C. for 4 to 6 weeks.
To prepare the substrate, 25-50 μCi of [^3H]trioleoylglycerol (in toluene), 6.8 μmol of unlabeled trioleoylglycerol and 0.6 mg of phospholipids (phosphatidylcholine/phosphatidylinositol 3:1 w/v) were mixed, dried with N2 and then taken up in 2 ml of 0.1 M KPi (pH 7.0) by ultrasonic treatment (Branson 250, microtip, setting 1-2, 2×1 min at 1-min intervals). After addition of 1 ml of KPi and renewed ultrasonic treatment (4×30 sec on ice in 30-sec intervals), 1 ml of 20% BSA (in KPi) was added (final concentration of trioleoylglycerol 1.7 mM). For the reaction, 100 μl of substrate solution were pipetted into 100 μl of HSL solution (HSL prepared as above, diluted in 20 mM KPi, pH 7.0, 1 mM EDTA, 1 mM DTT, 0.02% BSA, 20 μg/ml pepstatin, 10 μg/ml leupeptin) and incubated at 37° C. for 30 min. […] After phase separation, one equivalent of the upper phase (1 ml) was removed and the radioactivity was determined by liquid scintillation measurement.
Substances were normally tested in four independent mixtures. The inhibition of the HSL enzymatic activity by a test substance was determined by comparison with an uninhibited control reaction. The IC50 was calculated via an inhibition plot with at least 10 concentrations of the test substance. The data was analyzed using the software package GRAPHIT, Elsevier-BIOSOFT.

`COc1nn(-c2cccc(OCc3ccc(F)cc3)c2[N+](=O)[O-])c(=O)o1` [Example 22, 5-Methoxy-3-(3-(4-fluorobenzyloxy)-2-nitrophenyl)-3H-(1,3,4)oxadiazol-2-one] gave an IC50 [1] of 1 µM and a melting point of 99 °C.
`COc1nn(-c2ccc(N)c(C)c2)c(=O)o1` [Example 28, 5-Methoxy-3-(4-amino-3-methylphenyl)-3H-(1,3,4)oxadiazol-2-one] showed an IC50 [1] of 6 µM and a melting point of 114 °C.
`CCCCCCCC(=O)Nc1ccc(-n2nc(OC)oc2=O)cc1C` [Example 32, 5-Methoxy-3-(4-octanoylamino-3-methylphenyl)-3H-(1,3,4)oxadiazol-2-one] showed an IC50 [1] of 3 µM and a melting point of 110 °C.
With `CCCCCCCc1ccc(C(=O)Nc2ccc(-n3nc(OC)oc3=O)cc2)cc1` [Example 33, 5-Methoxy-3-(4-(4-heptylbenzoylamino)phenyl)-3H-(1,3,4)oxadiazol-2-one] the IC50 [1] was 0.2 µM and the melting point was 155 °C.
For `CCCCc1ccc(S(=O)(=O)Nc2ccc(-n3nc(OC)oc3=O)cc2)cc1` [Example 34, 5-Methoxy-3-(4-(4-butylphenylsulfonylamino)phenyl)-3H-(1,3,4)oxadiazol-2-one], the IC50 [1] was 1 µM and the melting point was 135 °C.
Compound `COc1nn(-c2ccc(NS(=O)(=O)c3ccc(Cl)cc3)c(C)c2)c(=O)o1` [Example 37, 5-Methoxy-3-(4-(4-chlorophenylsulfonylamino)-3-methylphenyl)-3H-(1,3,4)oxadiazol-2-one] has an IC50 [1] of 1 µM and a melting point of 147 °C.
In the case of `COc1nn(-c2ccc(NS(=O)(=O)c3cccc4ccccc34)c(C)c2)c(=O)o1` [Example 38, 5-Methoxy-3-(4-(1-naphthylsulfonylamino)-3-methylphenyl)-3H-(1,3,4)oxadiazol-2-one], the IC50 [1] is reported as 1 µM and the melting point is reported as 123 °C.
`COc1nn(-c2ccc(NS(=O)(=O)C=Cc3ccccc3)c(C)c2)c(=O)o1` [Example 39, 5-Methoxy-3-(4-(2-phenylethenylsulfonylamino)-3-methylphenyl)-3H-(1,3,4)oxadiazol-2-one] gave an IC50 [1] of 1 µM and a melting point of 129 °C.
In the case of `COc1nn(-c2ccc(NC(=O)Nc3ccc(Cl)c(Cl)c3)c(C)c2)c(=O)o1` [Example 42, 5-Methoxy-3-(4-(3,4-dichlorophenylaminocarbonylamino)-3-methylphenyl)-3H-(1,3,4)oxadiazol-2-one], the IC50 [1] is reported as 1 µM and the melting point is reported as 210 °C.
In the case of `COc1nn(-c2ccc(NC(C)=CC(C)=O)c(C)c2)c(=O)o1` [Example 53, 5-Methoxy-3-(4-(4-oxopent-2-en-2-ylamino)-3-methylphenyl)-3H-(1,3,4)oxadiazol-2-one], the IC50 [1] is reported as 1 µM and the melting point is reported as 143 °C.
`COc1nn(-c2ccc(NC(=O)OCc3ccccc3Cl)c(C)c2)c(=O)o1` [Example 62, 5-Methoxy-3-(3-methyl-4-(2-chlorobenzyloxycarbonylamino)phenyl)-3H-(1,3,4)oxadiazol-2-one] gave an IC50 [1] of 0.3 µM and a melting point of 161 °C.
With `COc1nn(-c2ccc(NC(=O)OCc3ccccc3)cc2C)c(=O)o1` [Example 65, 5-Methoxy-3-(2-methyl-4-benzyloxycarbonylaminophenyl)-3H-(1,3,4)oxadiazol-2-one] the IC50 [1] was 1 µM and the melting point was 112 °C.
Compound `CCCCCCCc1ccc(C(=O)Nc2ccc(-n3nc(OC)oc3=O)c(Cl)c2)cc1` [Example 71, 5-Methoxy-3-(2-chloro-4-(4-heptylbenzoylamino)phenyl)-3H-(1,3,4)oxadiazol-2-one] has an IC50 [1] of 0.02 µM and a melting point of 135 °C.
`CCOc1nn(-c2ccc(NC(=O)OCc3ccccc3)c(C)c2)c(=O)o1` [Example 74, 5-Ethoxy-3-(3-methyl-4-benzyloxycarbonylaminophenyl)-3H-(1,3,4)oxadiazol-2-one] gave an IC50 [1] of 0.04 µM and a melting point of 94 °C.
In the case of `CCCCCC=CCCCNc1cccc(-n2nc(OC)oc2=O)c1` [Example 171, 3-(3-Dec-4-enylaminophenyl)-5-methoxy-3H-[1,3,4]oxadiazol-2-one trifluoroacetate], the IC50 [1] is reported as 0.6 µM.
